# Test results taken from patent publication US20060069132A1, “Azolecarboxamide herbicides” (priority 2004, published 2006).
# How the values were obtained:
# wild oat = assay: Test B postemergence herbicide test; assay type: in vivo, Avena fatua; settings: scale 0 (no effect) to 100 (complete control)
# Method in brief: (§1)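 Greenhouse test; postemergence application to plants at 1–4 leaves (2–18 cm); paddy species at 2 leaves; evaluated visually vs controls at 13–15 days; scale 0–100 (100 = complete control).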
# rice [1] = assay: Test B pre-/postemergence herbicide test; assay type: in vivo, Oryza sativa; settings: preemergence
# Method in brief: (§2)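 Response was scored visually 13 to 15 days after treatment against untreated greenhouse controls, 0 meaning no effect and 100 complete control. Formulations (solvent mixture plus surfactant) went onto soil after planting, onto foliage of 1- to 4-leaf plants, and onto 2-leaf plants in a flooded paddy set including rice and barnyardgrass.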
# pigweed = assay: Test B pre-/postemergence herbicide test; assay type: in vivo, Amaranthus retroflexus
# Method in brief: as §2
# rice [2] = assay: Test B flooded paddy test; assay type: in vivo, Oryza sativa; settings: 1000 g ai/ha, visual rating, scale 0 to 100 (0 no effect, 100 complete control), 13 to 15 days
# Method in brief: (§3)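 Postemergence plants were sprayed with formulated test chemicals at 2 to 18 cm height (1- to 4-leaf stage); paddy species were grown to the 2-leaf stage. After 13 to 15 days in a greenhouse, injury was rated visually against untreated controls on a 0–100 scale (0 = no effect, 100 = complete control).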
# barnyardgrass [3] = assay: Test B flooded paddy test; assay type: in vivo, Echinochloa crus-galli; settings: 1000 g ai/ha, visual rating, scale 0 to 100 (0 no effect, 100 complete control), 13 to 15 days
# Method in brief: as §3
# large crabgrass = assay: Test B pre-/postemergence herbicide test; assay type: in vivo, Digitaria sanguinalis
# Method in brief: as §2
# blackgrass = assay: Test B postemergence herbicide test; assay type: in vivo, Alopecurus myosuroides; settings: scale 0 (no effect) to 100 (complete control)
# Method in brief: as §3
# giant foxtail = assay: Test B pre-/postemergence herbicide test; assay type: in vivo, Setaria faberi
# Method in brief: as §2
# lambsquarters = assay: Test B pre-/postemergence herbicide test; assay type: in vivo, Chenopodium album
# Method in brief: as §2
# corn = assay: Test B pre-/postemergence herbicide test; assay type: in vivo, Zea mays
# Method in brief: as §2
# [4] = test system: small flower umbrella sedge; assay: Test B flooded paddy test; assay type: in vivo, Cyperus difformis; settings: 1000 g ai/ha, visual rating, scale 0 to 100 (0 no effect, 100 complete control), 13 to 15 days
# Method in brief: as §3
# ducksalad = assay: Test B flooded paddy test; assay type: in vivo, Heteranthera limosa; settings: 1000 g ai/ha, visual rating, scale 0 to 100 (0 no effect, 100 complete control), 13 to 15 days
# Method in brief: as §3
# wheat = assay: Test B postemergence herbicide test; assay type: in vivo, Triticum aestivum; set-up: key to Wheat plant response rating: 0 = no effect, 100 = complete control; settings: scale 0 (no effect) to 100 (complete control)
# Method in brief: as §1
# cocklebur = assay: Test B pre-/postemergence herbicide test; assay type: in vivo, Xanthium strumarium
# Method in brief: (§4)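 Seeds were planted and treated preemergence with compounds formulated in a non-phytotoxic solvent mixture containing surfactant, while plants at the 1- to 4-leaf stage (2 to 18 cm) received postemergence sprays. Flooded paddy plants were grown to the 2-leaf stage. After 13 to 15 days in a greenhouse, injury was visually rated 0–100 against untreated controls.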
# velvetleaf = assay: Test B pre-/postemergence herbicide test; assay type: in vivo, Abutilon theophrasti
# Method in brief: as §2
# Surinam grass = assay: Test B pre-/postemergence herbicide test; assay type: in vivo, Urochloa decumbens
# Method in brief: as §2
# morningglory = assay: Test B pre-/postemergence herbicide test; assay type: in vivo, Ipomoea coccinea
# Method in brief: as §4
# barnyardgrass [5] = assay: Test B pre-/postemergence herbicide test; assay type: in vivo, Echinochloa crus-galli
# Method in brief: as §4
# [6] = Postemergence, 500 g ai/ha, visual rating after 13 to 15 days
# [7] = postemergence, 125 g ai/ha, visual rating
# [8] = Postemergence, 500 g ai/ha, visual rating after 13 to 15 days, scale 0 (no effect) to 100 (complete control)
# [9] = postemergence, 125 g ai/ha, visual rating, scale 0 (no effect) to 100 (complete control)
# [10] = preemergence, 125 g ai/ha, 0 to 100 scale, 0 is no effect, 100 is complete control
# [11] = 500 g ai/ha, visual rating 0-100, 0 no effect, 100 complete control, preemergence
structure (smiles),measurement,setting,value
CCOC(=O)c1cc(NC(=O)c2cc(C(C)(C)C)nn2CC)ccc1C [Compound 99],"Plant response rating, Oat, Wild",wild oat; [6],40
same,"Oat, Wild plant response rating",wild oat; [7],20
same,"Plant response rating, Rice","rice [1]; 500 g ai/ha, visual rating 0-100, 0 no effect, 100 complete control",0
same,"Plant response rating, Rice","rice [1]; 125 g ai/ha, 0 to 100 scale, 0 is no effect, 100 is complete control",0
same,"Plant response rating, Pigweed",pigweed; [8],70
same,Pigweed plant response rating,pigweed; [9],20
same,"Plant response rating, Pigweed",pigweed; [10],0
same,Rice plant response rating,rice [2],0
same,Barnyardgrass plant response rating,barnyardgrass [3],0
same,"Plant response rating, Crabgrass, Large",large crabgrass; [11],70
same,"Plant response rating, Crabgrass, Large",large crabgrass; [8],10
same,"Crabgrass, Large plant response rating",large crabgrass; [9],10
same,"Plant response rating, Crabgrass, Large",large crabgrass; [10],20
same,"Plant response rating, Blackgrass",blackgrass; [6],40
same,Blackgrass plant response rating,blackgrass; [7],20
same,"Plant response rating, Foxtail, Giant",giant foxtail; [11],20
same,"Plant response rating, Foxtail, Giant",giant foxtail; [8],30
same,"Foxtail, Giant plant response rating",giant foxtail; [9],10
same,"Plant response rating, Foxtail, Giant",giant foxtail; [10],10
same,"Plant response rating, Lambsquarters",lambsquarters; [11],20
same,"Plant response rating, Lambsquarters",lambsquarters; [8],90
same,Lambsquarters plant response rating,lambsquarters; [9],70
same,"Plant response rating, Lambsquarters",lambsquarters; [10],0
same,"Plant response rating, Corn",corn; [11],0
same,"Plant response rating, Corn",corn; [8],20
same,Corn plant response rating,corn; [9],10
same,"Plant response rating, Corn",corn; [10],0
same,"Sedge, Umbrella plant response rating",[4],40
same,Ducksalad plant response rating,ducksalad,0
same,"Plant response rating, Wheat",wheat; [6],20
same,Wheat plant response rating,wheat; [7],20
same,"Plant response rating, Cocklebur",cocklebur; [11],0
same,"Plant response rating, Cocklebur",cocklebur; [8],30
same,Cocklebur plant response rating,cocklebur; [9],0
same,"Plant response rating, Cocklebur",cocklebur; [10],0
same,"Plant response rating, Velvetleaf",velvetleaf; [11],20
same,"Plant response rating, Velvetleaf",velvetleaf; [8],40
same,Velvetleaf plant response rating,velvetleaf; [9],20
same,"Plant response rating, Velvetleaf",velvetleaf; [10],10
same,"Plant response rating, Surinam Grass",Surinam grass; [11],30
same,"Plant response rating, Surinam Grass",Surinam grass; [8],10
same,Surinam Grass plant response rating,Surinam grass; [9],10
same,"Plant response rating, Surinam Grass",Surinam grass; [10],10
same,"Plant response rating, Morningglory",morningglory; [11],0
same,"Plant response rating, Morningglory",morningglory; [8],20
same,Morningglory plant response rating,morningglory; [9],0
same,"Plant response rating, Morningglory",morningglory; [10],0
same,"Plant response rating, Barnyardgrass",barnyardgrass [5]; [11],30
same,"Plant response rating, Barnyardgrass",barnyardgrass [5]; [8],0
same,Barnyardgrass plant response rating,barnyardgrass [5]; [9],0
same,"Plant response rating, Barnyardgrass",barnyardgrass [5]; [10],0
